Converted amounts (≈) assume the structure as drawn.
What follows are molecules tested on Fe-ADP-Ascorbate induced lipid peroxidation (LPO) in rat brain (assay: Inhibition of Fe-ADP-ascorbate induced lipid peroxidation (LPO) in rat brain homogenate). Details: 37° C., 30 minutes.
Type: biochemical, Albino rats (Sprague Dawley strain)
Description: Inhibition of Fe-ADP-Ascorbate Induced Lipid Peroxidation (LPO) in Rat Brain by DBP and DCPs
Albino rats (Sprague Dawley strain) were sacrificed by cervical dislocation and decapitation. Brains were dissected out and 10% w/v homogenate was prepared in 0.15 M KCl. The brain homogenate was centrifuged at 1500 rpm for 10 minutes and the supernatant was used for the study. The incubation mixture contained in a final volume of 1 ml., brain homogenate (500 μl), distilled water (100 μl) or test compounds dissolved in solvents at different concentrations (10 to 100 μg/ml of the final volume). Peroxidation was initiated by adding FeCl3 (100 μM), ADP (1 mM) and ascorbate (100 μM) to give the final concentration stated. After incubating at 37° C. for 30 minutes, the reaction was stopped by adding acetic acid buffer (1.5 ml, pH 3.5) and thiobarbituric acid solution (1.5 ml, pH 7.4) to 1 ml of LPO mixture. The reaction mixture was heated at 85° C. for 30 minutes, cooled, centrifuged (2000 rpm for 10 minutes) and the absorbance of the supernatant was measured at 532 nm. IC50 values were calculated in the usual way by plotting the concentration of the test compounds versus percent inhibition of LPO.

With `O=c1oc2cc(O)ccc2c2ccc(O)cc12` [3,8-Dihydroxydibenzo-alpha-pyrone] as the molecule, how does the “IC50 (effect on LPO)” value read?
Its value is 30 µg/mL (≈ 131 µM).

Which “IC50 (effect on LPO)” value does the source give for `O=C1O[C@H]([C@@H](O)CO)C(O)=C1O` [Ascorbic acid] here?
The value was 70 µg/mL (≈ 397 µM).

`CC(=O)Oc1c(C)c(C)c2c(c1C)CCC(C)(CCC[C@H](C)CCC[C@H](C)CCCC(C)C)O2` (stereo partly drawn) [Vitamin E acetate] was tested. Which “IC50 (effect on LPO)” value did it give?
Its value is 56 µg/mL.

Source: patent US20050245434A1, “Oxygenated dibenzo-alpha-pyrone chromoproteins” (priority 2004, published 2005)
